Measurements from patent US20120225062A1 (priority 2011, published 2012).

Experiments:
Pim 2 = Pim 2 (Homo sapiens, UniProt Q9P1W9); test: Pim 2 AlphaScreen assay (high ATP)
[1] = test system: KMS11 (human myeloma cell line); test: Cell Proliferation Assay (CellTiter-Glo, 3 days); type: cell-based; conditions: KMS-11, 72 h, KMS11-luc cells
In short: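 KMS11 myeloma cells, 2000 per well in IMDM with 10% FBS, exposed to compound for 3 days at 37° C. Viability read by CellTiter-Glo luminescence; EC50 derived.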

Pim 1 = Pim 1 (Homo sapiens, UniProt P11309); test: Pim 1 AlphaScreen assay (high ATP)
Pim 1, sequence (P11309 whole entry): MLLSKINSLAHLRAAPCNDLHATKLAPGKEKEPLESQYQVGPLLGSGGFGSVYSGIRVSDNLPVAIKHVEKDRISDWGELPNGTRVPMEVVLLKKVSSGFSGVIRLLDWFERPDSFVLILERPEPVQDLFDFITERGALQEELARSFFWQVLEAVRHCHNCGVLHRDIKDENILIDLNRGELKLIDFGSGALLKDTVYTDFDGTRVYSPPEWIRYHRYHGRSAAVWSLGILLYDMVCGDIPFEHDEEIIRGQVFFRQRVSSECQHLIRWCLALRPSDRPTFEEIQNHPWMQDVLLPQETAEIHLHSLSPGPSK

Pim 3 = Pim 3 (Homo sapiens, UniProt Q86V86); test: Pim 3 AlphaScreen assay (high ATP)

Pim 2, sequence (Q9P1W9 whole entry): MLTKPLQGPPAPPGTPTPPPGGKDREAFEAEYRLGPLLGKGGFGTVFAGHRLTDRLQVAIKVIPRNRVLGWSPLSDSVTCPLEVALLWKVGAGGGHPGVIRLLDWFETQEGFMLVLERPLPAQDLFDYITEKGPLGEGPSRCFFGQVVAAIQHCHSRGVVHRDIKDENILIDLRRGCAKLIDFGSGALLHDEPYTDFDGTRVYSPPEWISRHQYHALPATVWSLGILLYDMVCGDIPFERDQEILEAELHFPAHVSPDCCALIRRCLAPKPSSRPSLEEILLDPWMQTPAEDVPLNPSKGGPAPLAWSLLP

IC50 (Pim 2)	EC50 [1]	IC50 (Pim 1)	IC50 (Pim 3)	SMILES
3 nM	527 nM	0.04 nM	1.32 nM	C[C@H]1C[C@@H](c2ccncc2NC(=O)c2ccc(F)c(-c3c(F)cc(OCC4(C#N)CCOCC4)cc3F)n2)C[C@@H](N)[C@@H]1O [Example 186, N-(4-((1R,3R,4R,5S)-3-amino-4-hydroxy-5-methylcyclohexyl)pyridin-3-yl)-6-(4-((4-cyanotetrahydro-2H-pyran-4-yl)methoxy)-2,6-difluorophenyl)-5-fluoropicolinamide]
1.92 nM	13 nM	0.03 nM	0.35 nM	COCCOc1ccc(F)c(-c2nc(C(=O)Nc3cnccc3N3C[C@@H](N)[C@H](O)[C@@H](C)C3)ccc2F)c1F [Example 17, N-(4-((3R,4R,5S)-3-amino-4-hydroxy-5-methylpiperidin-1-yl)pyridin-3-yl)-6-(2,6-difluoro-3-(2-methoxyethoxy)phenyl)-5-fluoropicolinamide]
3.15 nM	49 nM	0.03 nM	1.13 nM	COC(C)(C)COc1cc(F)c(-c2nc(C(=O)Nc3cnccc3[C@H]3C[C@@H](N)[C@H](O)[C@@H](C)C3)ccc2F)c(F)c1 [Example 45, N-(4-((1R,3R,4R,5S)-3-amino-4-hydroxy-5-methylcyclohexyl)pyridin-3-yl)-6-(2,6-difluoro-4-(2-methoxy-2-methylpropoxy)phenyl)-5-fluoropicolinamide]
1.87 nM	78 nM	0.04 nM	2.3 nM	C[C@H]1C[C@@H](c2ccncc2NC(=O)c2ccc(F)c(-c3c(F)cc(C(C)(C)C#N)cc3F)n2)C[C@@H](N)[C@@H]1O [Example 165, N-(4-((1R,3R,4R,5S)-3-amino-4-hydroxy-5-methylcyclohexyl)pyridin-3-yl)-6-(4-(2-cyanopropan-2-yl)-2,6-difluorophenyl)-5-fluoropicolinamide]
